# Assay results from ChEMBL document CHEMBL5506005, “Biochemical and structural characterization of chlorhexidine as an ATP-assisted inhibitor against type 1 methionyl-tRNA synthetase from Gram-positive bacteria” (Eur J Med Chem, 2024).
# Experiments:
# Methionine--tRNA ligase [1] = biological target: T1, Methionine--tRNA ligase (Staphylococcus aureus (strain Mu50 / ATCC 700699), UniProt P67578); assay: Binding affinity to Staphylococcus aureus MetRS expressed in Escherichia coli BL21(DE3) cells assessed as dissociation constant in presence of 1 mM ATP by ITC analysis
# T1 sequence (P67578 whole entry): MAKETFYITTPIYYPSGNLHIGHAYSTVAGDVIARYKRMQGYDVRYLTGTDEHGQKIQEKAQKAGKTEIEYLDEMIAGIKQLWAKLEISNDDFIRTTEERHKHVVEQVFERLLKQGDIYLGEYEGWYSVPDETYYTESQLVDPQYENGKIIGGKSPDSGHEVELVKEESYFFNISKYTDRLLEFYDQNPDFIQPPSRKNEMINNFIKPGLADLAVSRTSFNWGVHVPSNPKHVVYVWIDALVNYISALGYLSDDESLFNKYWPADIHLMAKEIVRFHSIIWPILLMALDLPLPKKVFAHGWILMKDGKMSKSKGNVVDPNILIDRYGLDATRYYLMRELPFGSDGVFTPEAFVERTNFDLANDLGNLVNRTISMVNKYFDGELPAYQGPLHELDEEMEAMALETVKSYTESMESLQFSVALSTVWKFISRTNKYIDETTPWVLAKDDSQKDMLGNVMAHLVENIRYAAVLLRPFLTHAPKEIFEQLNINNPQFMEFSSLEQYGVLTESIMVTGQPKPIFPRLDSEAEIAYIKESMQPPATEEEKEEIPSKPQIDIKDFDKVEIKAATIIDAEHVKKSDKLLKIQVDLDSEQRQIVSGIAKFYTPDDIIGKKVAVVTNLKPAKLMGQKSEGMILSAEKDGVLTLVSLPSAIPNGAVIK
# Methionine--tRNA ligase [2] = biological target: T2, Methionine--tRNA ligase (Enterococcus faecalis, UniProt A0A3N3ZFK4); assay: Binding affinity to Enterococcus faecalis type 1 MetRS expressed in Escherichia coli BL21(DE3) cells assessed as dissociation constant in presence of 1 mM ATP by ITC analysis
# T2 sequence (A0A3N3ZFK4 whole entry): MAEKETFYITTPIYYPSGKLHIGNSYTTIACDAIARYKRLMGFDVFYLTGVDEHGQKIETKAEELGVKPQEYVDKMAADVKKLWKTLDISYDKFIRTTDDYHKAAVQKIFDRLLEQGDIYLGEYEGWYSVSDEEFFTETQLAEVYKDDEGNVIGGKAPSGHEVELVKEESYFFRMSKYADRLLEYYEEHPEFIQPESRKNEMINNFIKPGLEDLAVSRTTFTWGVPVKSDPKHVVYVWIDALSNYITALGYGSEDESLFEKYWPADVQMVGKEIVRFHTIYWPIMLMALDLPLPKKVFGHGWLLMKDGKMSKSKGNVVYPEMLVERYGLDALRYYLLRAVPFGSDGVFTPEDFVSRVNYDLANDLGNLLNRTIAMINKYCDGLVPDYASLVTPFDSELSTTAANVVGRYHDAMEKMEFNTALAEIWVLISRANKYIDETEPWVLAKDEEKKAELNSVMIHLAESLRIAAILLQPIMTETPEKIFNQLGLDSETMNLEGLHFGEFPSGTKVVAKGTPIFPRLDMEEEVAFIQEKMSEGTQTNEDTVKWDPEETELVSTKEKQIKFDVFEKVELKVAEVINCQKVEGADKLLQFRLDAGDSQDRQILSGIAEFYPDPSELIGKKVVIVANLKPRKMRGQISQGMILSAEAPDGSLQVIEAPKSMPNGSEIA
# Methionine--tRNA ligase [3] = biological target: T2, Methionine--tRNA ligase; assay: Binding affinity to Enterococcus faecalis type 1 MetRS expressed in Escherichia coli BL21(DE3) cells assessed as dissociation constant by ITC analysis
# Methionine--tRNA ligase [4] = biological target: T1, Methionine--tRNA ligase; assay: Binding affinity to Staphylococcus aureus MetRS expressed in Escherichia coli BL21(DE3) cells assessed as dissociation constant in presence of 1 mM ADP by ITC analysis
# Methionine--tRNA ligase [5] = biological target: T1, Methionine--tRNA ligase; assay: Inhibition of Staphylococcus aureus MetRS expressed in Escherichia coli BL21(DE3) cells measured after 2.5 hrs in presence of ATP by pre-transfer editing assay
# Methionine--tRNA ligase [6] = biological target: T1, Methionine--tRNA ligase; assay: Binding affinity to Staphylococcus aureus MetRS expressed in Escherichia coli BL21(DE3) cells assessed as dissociation constant in presence of 1 mM AMP by ITC analysis
# Methionine--tRNA ligase [7] = biological target: T1, Methionine--tRNA ligase; assay: Binding affinity to Staphylococcus aureus MetRS expressed in Escherichia coli BL21(DE3) cells assessed as dissociation constant in presence of 20 uM ATP by ITC analysis
# Methionine--tRNA ligase [8] = biological target: T1, Methionine--tRNA ligase; assay: Binding affinity to Staphylococcus aureus MetRS expressed in Escherichia coli BL21(DE3) cells assessed as dissociation constant in presence of ATP/L-Met by ITC analysis
# Methionine--tRNA ligase [9] = biological target: T1, Methionine--tRNA ligase; assay: Binding affinity to Staphylococcus aureus MetRS expressed in Escherichia coli BL21(DE3) cells assessed as dissociation constant by ITC analysis
# Methionine--tRNA ligase [10] = biological target: T1, Methionine--tRNA ligase; assay: Binding affinity to Staphylococcus aureus MetRS expressed in Escherichia coli BL21(DE3) cells assessed as dissociation constant in presence of 50 uM ATP by ITC analysis
# Methionine--tRNA ligase [11] = biological target: T2, Methionine--tRNA ligase; assay: Inhibition of Enterococcus faecalis type 1 MetRS expressed in Escherichia coli BL21(DE3) cells measured after 1.5 hrs in presence of ATP by pre-transfer editing assay
# Methionine--tRNA ligase [12] = biological target: T1, Methionine--tRNA ligase; assay: Binding affinity to Staphylococcus aureus MetRS expressed in Escherichia coli BL21(DE3) cells assessed as dissociation constant in presence of 500 uM ATP by ITC analysis
# [13] = biological target: Methionine--tRNA ligase (Staphylococcus aureus (strain Mu50 / ATCC 700699)) (UniProt P67578); assay: Binding affinity to Staphylococcus aureus MetRS expressed in Escherichia coli BL21(DE3) cells assessed as change in melting temperature at 100 uM incubated for 10 mins followed by heat treatment in presence of 2 mM ATP by SYPRO orange dye based TSA (reference value: 56.4 degreeC)
# Chain of Methionine--tRNA ligase (Staphylococcus aureus (strain Mu50 / ATCC 700699)) (P67578 whole entry): as the sequence (P67578 whole entry) above
# [14] = biological target: Methionine--tRNA ligase (Staphylococcus aureus (strain Mu50 / ATCC 700699)) (UniProt P67578); assay: Inhibition of Staphylococcus aureus MetRS expressed in Escherichia coli BL21(DE3) cells at 100 uM measured after 2.5 hrs in presence of ATP by pre-transfer editing assay relative to control
# [15] = biological target: Methionine--tRNA ligase (Staphylococcus aureus (strain Mu50 / ATCC 700699)) (UniProt P67578); assay: Binding affinity to Staphylococcus aureus MetRS expressed in Escherichia coli BL21(DE3) cells assessed as change in melting temperature at 100 uM incubated for 10 mins followed by heat treatment by SYPRO orange dye based TSA (reference value: 53.7 degreeC)
Compound,Kd (Methionine--tRNA ligase [1]) [nM],Kd (Methionine--tRNA ligase [2]) [nM],Kd (Methionine--tRNA ligase [3]) [nM],Kd (Methionine--tRNA ligase [4]) [nM],IC50 (Methionine--tRNA ligase [5]) [nM],Kd (Methionine--tRNA ligase [6]) [nM],Kd (Methionine--tRNA ligase [7]) [nM],Kd (Methionine--tRNA ligase [8]) [nM],Kd (Methionine--tRNA ligase [9]) [nM],Kd (Methionine--tRNA ligase [10]) [nM],IC50 (Methionine--tRNA ligase [11]) [nM],Kd (Methionine--tRNA ligase [12]) [nM],ΔTm [13] [°C],inhibition [14] [%],ΔTm [15] [°C]
[H]/N=C(\N/C(=N/[H])NCCCCCCNC(=N)NC(=N)Nc1ccc(Cl)cc1)Nc1ccc(Cl)cc1 [CHLORHEXIDINE],450,300,5040,1900,30800,6,3100,4190,10200,1210,8500,593,,,
VITAMIN E,,,,,,,,,,,,,1,< 20,1.2
